Reference: PubChem BioAssay (NCI)
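Five concentrations, 48 hours, 96-well plates. TGI marks complete inhibition of growth.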

Columns and labels:
Assay in all cases: growth of human tumour cells (NCI), 48 h
SF-268 CNS = test system: SF-268 CNS
HOP-62 NSCLC = test system: HOP-62 NSCLC
K-562 leukemia = test system: K-562 leukemia
NCI-H226 lung = test system: NCI-H226 lung
CCRF-CEM leukemia = test system: CCRF-CEM leukemia
CAKI-1 renal = test system: CAKI-1 renal
U251 CNS = test system: U251 CNS
HCC-2998 colon = test system: HCC-2998 colon
NCI-H23 lung = test system: NCI-H23 lung
RPMI-8226 leukemia = test system: RPMI-8226 leukemia
M14 melanoma = test system: M14 melanoma
HCT-15 colon = test system: HCT-15 colon
NCI-H522 lung = test system: NCI-H522 lung
NCI-H460 lung = test system: NCI-H460 lung
SN12C renal = test system: SN12C renal
KM20L2 colon = test system: KM20L2 colon
COLO 205 colon = test system: COLO 205 colon
HL-60(TB) leukemia = test system: HL-60(TB) leukemia
LXFL 529 NSCLC = test system: LXFL 529 NSCLC
SK-MEL-2 melanoma = test system: SK-MEL-2 melanoma
ACHN renal = test system: ACHN renal
OVCAR-5 ovarian = test system: OVCAR-5 ovarian
786-0 renal = test system: 786-0 renal
OVCAR-4 ovarian = test system: OVCAR-4 ovarian
M19-MEL melanoma = test system: M19-MEL melanoma
TK-10 renal = test system: TK-10 renal
MALME-3M melanoma = test system: MALME-3M melanoma
EKVX NSCLC = test system: EKVX NSCLC
UACC-257 melanoma = test system: UACC-257 melanoma
OVCAR-3 ovarian = test system: OVCAR-3 ovarian
DMS 114 small cell lung = test system: DMS 114 small cell lung
A498 renal = test system: A498 renal
LOX IMVI melanoma = test system: LOX IMVI melanoma
UO-31 renal = test system: UO-31 renal
DMS 273 small cell lung = test system: DMS 273 small cell lung
SR leukemia = test system: SR leukemia
RXF 393 renal = test system: RXF 393 renal
SW-620 colon = test system: SW-620 colon
MOLT-4 leukemia = test system: MOLT-4 leukemia
HCT-116 colon = test system: HCT-116 colon
SNB-19 CNS = test system: SNB-19 CNS
KM12 colon = test system: KM12 colon
A549 NSCLC = test system: A549 NSCLC
DLD-1 colon = test system: DLD-1 colon
RXF-631 renal = test system: RXF-631 renal
OVCAR-8 ovarian = test system: OVCAR-8 ovarian
UACC-62 melanoma = test system: UACC-62 melanoma
SNB-75 CNS = test system: SNB-75 CNS
SF-539 CNS = test system: SF-539 CNS
SF-295 CNS = test system: SF-295 CNS
IGROV1 ovarian = test system: IGROV1 ovarian
SK-MEL-28 melanoma = test system: SK-MEL-28 melanoma
HT29 colon = test system: HT29 colon
HOP-92 NSCLC = test system: HOP-92 NSCLC
XF 498 CNS = test system: XF 498 CNS
HOP-18 NSCLC = test system: HOP-18 NSCLC
SNB-78 CNS = test system: SNB-78 CNS
SK-OV-3 ovarian = test system: SK-OV-3 ovarian
SK-MEL-5 melanoma = test system: SK-MEL-5 melanoma

COc1cc(C(C)c2cc3c(cc2OCCN)OCO3)cc(OC)c1OC (centres undefined)
TGI (SF-268 CNS): > 100 µM
TGI (HOP-62 NSCLC): > 100 µM
TGI (K-562 leukemia): > 100 µM
TGI (NCI-H226 lung): > 100 µM
TGI (CCRF-CEM leukemia): > 100 µM
TGI (CAKI-1 renal): > 100 µM
TGI (U251 CNS): > 100 µM
TGI (HCC-2998 colon): > 100 µM
TGI (NCI-H23 lung): > 100 µM
TGI (RPMI-8226 leukemia): > 100 µM
TGI (M14 melanoma): > 100 µM
TGI (HCT-15 colon): > 100 µM
TGI (NCI-H522 lung): > 100 µM
TGI (NCI-H460 lung): > 100 µM
TGI (SN12C renal): > 100 µM
TGI (KM20L2 colon): 80.8 µM
TGI (COLO 205 colon): > 100 µM
TGI (HL-60(TB) leukemia): 47 µM
TGI (LXFL 529 NSCLC): > 100 µM
TGI (SK-MEL-2 melanoma): > 100 µM
TGI (ACHN renal): > 100 µM
TGI (OVCAR-5 ovarian): > 100 µM
TGI (786-0 renal): > 100 µM
TGI (OVCAR-4 ovarian): > 100 µM
TGI (M19-MEL melanoma): > 100 µM
TGI (TK-10 renal): > 100 µM
TGI (MALME-3M melanoma): > 100 µM
TGI (EKVX NSCLC): > 100 µM
TGI (UACC-257 melanoma): > 100 µM
TGI (OVCAR-3 ovarian): > 100 µM
TGI (DMS 114 small cell lung): > 100 µM
TGI (A498 renal): > 100 µM
TGI (LOX IMVI melanoma): > 100 µM
TGI (UO-31 renal): > 100 µM
TGI (DMS 273 small cell lung): > 100 µM
TGI (SR leukemia): > 100 µM
TGI (RXF 393 renal): 95.7 µM
TGI (SW-620 colon): > 100 µM
TGI (MOLT-4 leukemia): > 100 µM
TGI (HCT-116 colon): > 100 µM
TGI (SNB-19 CNS): > 100 µM
TGI (KM12 colon): > 100 µM
TGI (A549 NSCLC): > 100 µM
TGI (DLD-1 colon): > 100 µM
TGI (RXF-631 renal): > 100 µM
TGI (OVCAR-8 ovarian): > 100 µM
TGI (UACC-62 melanoma): > 100 µM
TGI (SNB-75 CNS): 46.8 µM
TGI (SF-539 CNS): > 100 µM
TGI (SF-295 CNS): > 100 µM
TGI (IGROV1 ovarian): > 100 µM
TGI (SK-MEL-28 melanoma): > 100 µM
TGI (HT29 colon): > 100 µM

CCCCSC(=CC(=O)c1cccc(C(=O)C=C(SCCCC)SCCCC)n1)SCCCC
TGI (SF-268 CNS): > 100 µM
TGI (HOP-62 NSCLC): > 100 µM
TGI (K-562 leukemia): > 100 µM
TGI (NCI-H226 lung): > 100 µM
TGI (CCRF-CEM leukemia): > 100 µM
TGI (CAKI-1 renal): > 100 µM
TGI (U251 CNS): > 100 µM
TGI (HCC-2998 colon): > 100 µM
TGI (NCI-H23 lung): > 100 µM
TGI (RPMI-8226 leukemia): > 100 µM
TGI (M14 melanoma): > 100 µM
TGI (HCT-15 colon): > 100 µM
TGI (NCI-H522 lung): > 100 µM
TGI (NCI-H460 lung): > 100 µM
TGI (SN12C renal): > 100 µM
TGI (HOP-92 NSCLC): > 100 µM
TGI (KM20L2 colon): > 100 µM
TGI (COLO 205 colon): > 100 µM
TGI (HL-60(TB) leukemia): > 100 µM
TGI (LXFL 529 NSCLC): > 100 µM
TGI (SK-MEL-2 melanoma): > 100 µM
TGI (XF 498 CNS): > 100 µM
TGI (ACHN renal): > 100 µM
TGI (OVCAR-5 ovarian): > 100 µM
TGI (786-0 renal): > 100 µM
TGI (OVCAR-4 ovarian): > 100 µM
TGI (M19-MEL melanoma): > 100 µM
TGI (TK-10 renal): > 100 µM
TGI (MALME-3M melanoma): > 100 µM
TGI (EKVX NSCLC): > 100 µM
TGI (HOP-18 NSCLC): > 100 µM
TGI (UACC-257 melanoma): > 100 µM
TGI (OVCAR-3 ovarian): > 100 µM
TGI (DMS 114 small cell lung): > 100 µM
TGI (A498 renal): > 100 µM
TGI (LOX IMVI melanoma): > 100 µM
TGI (UO-31 renal): > 100 µM
TGI (DMS 273 small cell lung): > 100 µM
TGI (SNB-78 CNS): > 100 µM
TGI (SR leukemia): > 100 µM
TGI (RXF 393 renal): > 100 µM
TGI (SW-620 colon): > 100 µM
TGI (MOLT-4 leukemia): > 100 µM
TGI (HCT-116 colon): > 100 µM
TGI (SNB-19 CNS): > 100 µM
TGI (KM12 colon): > 100 µM
TGI (A549 NSCLC): > 100 µM
TGI (DLD-1 colon): > 100 µM
TGI (SK-OV-3 ovarian): > 100 µM
TGI (OVCAR-8 ovarian): > 100 µM
TGI (UACC-62 melanoma): > 100 µM
TGI (SNB-75 CNS): > 100 µM
TGI (SF-539 CNS): > 100 µM
TGI (SK-MEL-5 melanoma): > 100 µM
TGI (SF-295 CNS): > 100 µM
TGI (IGROV1 ovarian): > 100 µM
TGI (SK-MEL-28 melanoma): > 100 µM
TGI (HT29 colon): > 100 µM

O=C1Cc2ccccc2N1/N=C\c1ccc([N+](=O)[O-])cc1
TGI (SF-268 CNS): > 100 µM
TGI (HOP-62 NSCLC): > 100 µM
TGI (K-562 leukemia): > 100 µM
TGI (NCI-H226 lung): > 100 µM
TGI (CCRF-CEM leukemia): > 100 µM
TGI (CAKI-1 renal): > 100 µM
TGI (U251 CNS): > 100 µM
TGI (HCC-2998 colon): > 100 µM
TGI (NCI-H23 lung): > 100 µM
TGI (RPMI-8226 leukemia): > 100 µM
TGI (M14 melanoma): > 100 µM
TGI (HCT-15 colon): > 100 µM
TGI (NCI-H460 lung): > 100 µM
TGI (HOP-92 NSCLC): > 100 µM
TGI (KM20L2 colon): > 100 µM
TGI (COLO 205 colon): > 100 µM
TGI (HL-60(TB) leukemia): > 100 µM
TGI (SK-MEL-2 melanoma): > 100 µM
TGI (XF 498 CNS): > 100 µM
TGI (ACHN renal): > 100 µM
TGI (OVCAR-5 ovarian): > 100 µM
TGI (786-0 renal): > 100 µM
TGI (OVCAR-4 ovarian): > 100 µM
TGI (M19-MEL melanoma): > 100 µM
TGI (TK-10 renal): > 100 µM
TGI (MALME-3M melanoma): > 100 µM
TGI (EKVX NSCLC): > 100 µM
TGI (HOP-18 NSCLC): > 100 µM
TGI (UACC-257 melanoma): > 100 µM
TGI (OVCAR-3 ovarian): > 100 µM
TGI (DMS 114 small cell lung): > 100 µM
TGI (A498 renal): > 100 µM
TGI (LOX IMVI melanoma): > 100 µM
TGI (UO-31 renal): > 100 µM
TGI (DMS 273 small cell lung): > 100 µM
TGI (SNB-78 CNS): > 100 µM
TGI (SW-620 colon): > 100 µM
TGI (MOLT-4 leukemia): > 100 µM
TGI (HCT-116 colon): > 100 µM
TGI (SNB-19 CNS): > 100 µM
TGI (KM12 colon): > 100 µM
TGI (A549 NSCLC): > 100 µM
TGI (DLD-1 colon): > 100 µM
TGI (SK-OV-3 ovarian): > 100 µM
TGI (OVCAR-8 ovarian): > 100 µM
TGI (UACC-62 melanoma): > 100 µM
TGI (SNB-75 CNS): > 100 µM
TGI (SF-539 CNS): > 100 µM
TGI (SK-MEL-5 melanoma): > 100 µM
TGI (SF-295 CNS): > 100 µM
TGI (IGROV1 ovarian): > 100 µM
TGI (SK-MEL-28 melanoma): > 100 µM
TGI (HT29 colon): > 100 µM
